Assay results published in ChEMBL document CHEMBL1143717, “Biologically active natural products from Mongolian medicinal plants Scorzonera divaricata and Scorzonera pseudodivaricata” (J Nat Prod, 2007).
Calls of active or inactive are those of the source. The rule behind the calls is not given here.

Test system: Radical scavenging activity
Assay: Antioxidant activity assessed as DPPH radical scavenging activity
Format: functional

SMILES | Activity
CCCCCC(=O)O[C@H]1[C@H](Oc2cc(CC(=O)CCc3ccc(O)cc3)c(O)c(C(=O)O)c2)O[C@H](CO)[C@@H](O)[C@@H]1O | inactive
CC1=CC(=O)C2=C(C)C[C@H](OC(=O)CCc3ccc(OC4O[C@H](CO)[C@@H](O)[C@H](O)[C@H]4O)cc3)[C@@H]3[C@H](OC(=O)[C@H]3C)[C@@H]12 (some centres not stated) | inactive
